Read-outs that look alike come from different tables or passages of the source.
Columns and labels:
[1] = test system: thymus cancer cells (Ty-82 cells); test: Cytotoxicity to thymus cancer cells (Ty-82 cells), WST-1; conditions: Homo sapiens, TY82, 72 h
Experimental: The following experiment was performed to evaluate the cytotoxicity of [1,2,4]triazolo[4,3-a]quinoxaline derivative according to the present invention to thymus cancer cells (Ty-82 cells).
First, thymus cancer cells (Ty-82 cells) were distributed in a 96 well plate at the density of 2.5×10^4 cells/well. 24 hours later, the plated cells were treated with the compounds of the present invention dissolved in DMSO at the different concentrations ranging from 0.01 μM to 10 μM. 72 hours later, the activities of the compounds were determined using WST-1 reagent.

[2] = test system: acute myelogenous leukemia cells (MV-4-11 cells); test: Cytotoxicity to acute myelogenous leukemia cells (MV-4-11 cells), CCK-8; conditions: Homo sapiens, MV4-11, 72 h
Experimental: The following experiment was performed to evaluate the cytotoxicity of [1,2,4]triazolo[4,3-a]quinoxaline derivative according to the present invention to acute myelogenous leukemia cells (MV-4-11 cells).
Acute myelogenous leukemia cells (MV-4-11 cells) were distributed in a 96 well plate at the density of 5×10^3 cells/well. The plated cells were treated with the compounds of the present invention dissolved in DMSO at the different concentrations ranging from 0.01 μM to 10 μM. 72 hours later, the activities of the compounds were determined using CCK-8 reagent.

[3] = target: BRD4 (BD1+BD2) bromodomain (Homo sapiens (Human), UniProt O60885); test: BRD4 binding inhibition (AlphaScreen, GST-BRD4 vs tetraacetylated histone H4 peptide)
In short: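 GST-BRD4 (BD1+BD2) and biotinylated tetraacetyl-histone H4 peptide, each at 100 nM in HEPES pH 7.4 buffer with BSA and DTT, were combined with compound. Glutathione acceptor and streptavidin donor beads were added, then incubated 30 min at room temperature in the dark. Read-out was AlphaScreen signal.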

[4] = read-out: IC50, cytotoxicity against thymus cancer cells
[5] = read-out: Ty-82 Cytotoxicity IC50
[6] = read-out: IC50, cytotoxicity against acute myelogenous leukemia cells
[7] = read-out: MV-4-11 Cytotoxicity IC50
[8] = GST-BRD4 (BD1+BD2) vs biotinylated acetyl-histone H4 peptide, AlphaScreen, read-out: BRD4 IC50
[9] = GST-BRD4 (BD1+BD2) / biotinylated acetyl-histone H4 (Lys5,8,12,16) peptide, read-out: IC50, BRD4 binding inhibition

Compound | IC50 [3, 8] [nM] | IC50 [3, 9] [nM] | IC50 [1, 4] [nM] | IC50 [1, 5] [nM] | IC50 [2, 6] [nM] | IC50 [2, 7] [nM]
COc1ccc2c(c1)nc(NCCCCNC(=O)OC(C)C)c1nnc(C)n12 [Example 278, [4-(7-methoxy-1-methyl-[1,2,4]triazolo[4,3-a]quinoxaline-4-ylamino)-butyl]-carbamic acid isopropylester] | 51 | – | ≤ 500 | 180 | ≤ 200 | 160
COc1cc2nc(NCCCCNC(=O)NC(C)C)c3nnc(C)n3c2cc1OC [Example 90] | 63 | – | ≤ 500 | 400 | – | 300
Cc1nnc2c(NCCCCNC(=O)OC3CCCC3)nc3cc4c(cc3n12)OCCO4 [Example 190, [4-(1-methyl-8,9-dihydro-7,10-dioxa-2,3,5,11b-tetraaza-cyclopenta[a]anthracene-4-ylamino)-butyl]-carbamic acid cyclopentylester] | 28 | ≤ 50 | – | 650 | ≤ 200 | 90
COc1cc(C)c2nc(NCCCCNC(=O)OC(C)C)c3nnc(C)n3c2c1 [Example 161, [4-(8-methoxy-1,6-dimethyl-[1,2,4]triazolo[4,3-a]quinoxaline-4-ylamino)-butyl]-carbamic acid isopropylester] | – | ≤ 10 | – | 810 | ≤ 200 | 80
COc1cc2nc(NCCCCNC(=O)CC(C)C)c3nnc(C)n3c2cc1OC [Example 74, N-[4-(7,8-dimethoxy-1-methyl-[1,2,4]triazolo[4,3-a]quinoxaline-4-ylamino)-butyl]-3-methyl-butyramide] | 28 | ≤ 50 | ≤ 500 | 170 | ≤ 200 | 110
COc1cc2nc(NCCCCNC(=O)C(C)(C)C)c3nnc(C)n3c2cc1OC [Example 59, N-[4-(7,8-dimethoxy-1-methyl-[1,2,4]triazolo[4,3-a]quinoxaline-4-ylamino)-butyl]-2,2-dimethyl-propionamide] | 34 | ≤ 50 | ≤ 500 | 420 | – | 310

The next lines start with results.

IC50 [3, 8] [nM] | IC50 [3, 9] [nM] | Compound | IC50 [1, 4] [nM] | IC50 [1, 5] [nM] | IC50 [2, 6] [nM] | IC50 [2, 7] [nM]
22 | ≤ 50 | Cc1nnc2c(NCCCCNC(=O)c3ccccc3)nc3cc4c(cc3n12)OCCO4 [Example 186, N-[4-(1-methyl-8,9-dihydro-7,10-dioxa-2,3,5,11b-tetraaza-cyclopenta[a]anthracene-4-ylamino)-butyl]-benzamide] | ≤ 500 | 340 | – | 680
17 | ≤ 50 | COc1cc2nc(NCCCCNC(=O)c3ccc(C)nc3Cl)c3nnc(C)n3c2cc1OC [Example 108, 2-chloro-N-[4-(7,8-dimethoxy-1-methyl-[1,2,4]triazolo[4,3-a]quinoxaline-4-ylamino)-butyl]-6-methyl-nicotinamide] | ≤ 500 | 370 | – | 510
26 | ≤ 50 | COCCOc1cc2nc(NCCCCNC(=O)OC(C)C)c3nnc(C)n3c2cc1OCCOC [Example 165, {4-[7,8-bis-(2-methoxy-ethoxy)-1-methyl-[1,2,4]triazolo[4,3-a]quinoxaline-4-ylamino]-butyl}-carbamic acid isopropylester] | – | 580 | – | 220
61 | – | COc1c(C)ccc2c1nc(NCCCCNC(=O)CC(C)C)c1nnc(C)n12 [Example 135, N-[4-(6-methoxy-1,7-dimethyl-[1,2,4]triazolo[4,3-a]quinoxaline-4-ylamino)-butyl]-3-methyl-butyramide] | – | 730 | – | 360
18 | ≤ 50 | COc1cc2nc(NCCCCNC(=O)NC(C)(C)C)c3nnc(C)n3c2cc1OC [Example 88, 1-tert-butyl-3-[4-(7,8-dimethoxy-1-methyl-[1,2,4]triazolo[4,3-a]quinoxaline-4-ylamino)-butyl]-urea] | – | 970 | – | 510
12 | ≤ 50 | COc1cc2nc(NCCCCNC(=O)OC(C)C)c3nnc(C)n3c2cc1OC [Example 60, [4-(7,8-dimethoxy-1-methyl-[1,2,4]triazolo[4,3-a]quinoxaline-4-ylamino)-butyl]-carbamic acid isopropylester] | ≤ 500 | 120 | ≤ 200 | 10

Reference: patent publication US11028090B2 (Dong Wha Pharm. Co., Ltd., priority 2017, dated 2021)
